Source: publication PMC10606834, “Is the Neuropeptide PEN a Ligand of GPR83?” (International Journal of Molecular Sciences, 2023)

Legend:
[1] = system: GPR83 and GPR83del with Gα16 (HEK293); assay: Intracellular calcium mobilization, Gα16-transfected HEK293 cells; assay type: cell-based, human; settings: 10 µM PEN, 100 µM carbachol, 100 µM ATP, Fluo4-AM fluorescence, duplicate, repeated at least two times
Procedure: (§1) As activation of many GPCRs is coupled to calcium mobilization from intracellular stores, GPR83 was probed for ligand-dependent calcium release. Wild-type HEK293 cells and HEK293 clones overexpressing either full-length GPR83 or the N-terminal deletion variant GPR83del were exposed to buffer or one of two independent synthesis batches (PEN #1 and PEN #2) of the neuropeptide PEN, while calcium indicator fluorescence was recorded. […] Calcium release was also tested in a second cell line, osteosarcoma U2OS cells, using various stably expressing clones. […] Therefore, HEK293 cells transfected with Gα16 were employed to investigate a potential GPR83-dependent calcium mobilization with PEN. […] A number of GPCRs show ligand-independent basal calcium activity. However, in an experiment comparing basal calcium levels in wild-type HEK293 cells and in HEK293 clones overexpressing four different variants of GPR83, they were not found to be different (Figure 2D).
(§2) Figure 2 Investigation of ligand-dependent and ligand-independent intracellular calcium mobilization. (A) Wild-type HEK293 cells and HEK293 cell clones overexpressing either GPR83 or the deletion variant GPR83del were incubated with either buffer or the specified ligand (10 µM PEN or co mix = 100 µM carbachol, 100 µM ATP, 40 µM dimaprit, or 50 µM ionomycin). (B) Calcium indicator fluorescence intensity traces over 60 s of various U2OS cell clones overexpressing untagged or HA-tagged GPR83 or the deletion variant GPR83del before and after the addition of buffer or ligand (co mix as in (A) or 50 µM ionomycin or 10 µM PEN). […]
(§3) Cells were seeded at 50,000 cells/well in a poly-D-lysine coated 96-well black well/clear bottom plate (BD Falcon, Franklin Lakes, NJ, USA) and cultured overnight. […] Fluorescence was recorded with the fluorescence imaging plate reader CellLux (Perkin Elmer, Waltham, MA, USA) simultaneously in all wells at an excitation wavelength of 488 nm and emission wavelength of 510 nm in 1.5 s intervals over a period of 4 min. Fluorescence data were generated in duplicate, and experiments were repeated at least two times.

[2] = system: GPR83 and deletion variant GPR83del (HEK293 clones; wild-type HEK293 as comparison); assay: Intracellular calcium mobilization, HEK293 cells; assay type: cell-based, human; settings: 10 µM PEN; co mix = 100 µM carbachol, 100 µM ATP, 40 µM dimaprit; 50 µM ionomycin; HEK293 wild-type, GPR83 or GPR83del clones; Fluo4-AM fluorescence, compared with buffer; duplicate, repeated at least two times
Procedure: as §1, §2, §3

Row | SMILES | calcium signal [1] | calcium signal [2]
1 | Nc1ncnc2c1ncn2[C@@H]1O[C@H](COP(=O)(O)OP(=O)(O)OP(=O)(O)O)[C@@H](O)[C@H]1O [ATP] | strongly enhanced the calcium signal | 
2 | C[N+](C)(C)CCOC(N)=O [carbachol] | strongly enhanced the calcium signal | 
3 | C[C@H](CCC(=O)O)C[C@H](C)C[C@H](C)C(=O)/C=C(\O)[C@H](C)C[C@H](C)C/C=C/[C@@H](C)[C@@H](O)[C@@H](C)[C@@H](O)C[C@@H]1CC[C@@](C)([C@H]2CC[C@@](C)([C@@H](C)O)O2)O1 [ionomycin, reference compound] |  | clear calcium signal above buffer background
